The supplement of paper PMC10307832

Legend:
Test in all cases: relative viability (nuclei count vs DMSO), 5 days (fraction); higher = more cells survive
[1] = system: NCI-H1793
Summary of the method: (§1)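 Lung cancer cell lines were pin-tool dosed in 1536-well plates on the day after seeding, with either a lone drug or a fixed anchor-drug dose plus five library-drug doses (not always all listed) in √10 steps. Nuclei were counted on 4× images after 5 days. Relative viability is the ratio of treated-well to vehicle-well nuclei counts, with each value a median of duplicate plates.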

[2] = system: NCI-H1944
Summary of the method: as §1

[3] = system: NCI-H1993
Summary of the method: as §1

[4] = system: NCI-H2009
Summary of the method: as §1

[5] = system: NCI-H2023
Summary of the method: as §1

[6] = system: NCI-H2126
Summary of the method: as §1

[7] = system: NCI-H2228
Summary of the method: as §1

[8] = system: NCI-H23
Summary of the method: as §1

[9] = system: NCI-H2405
Summary of the method: as §1

[10] = system: NCI-H838
Summary of the method: as §1

[11] = system: SK-LU-1
Summary of the method: as §1

[12] = system: UMC-11
Summary of the method: as §1

NC(=O)Nc1cc(-c2cccc(F)c2)sc1C(=O)N[C@H]1CCCNC1 [AZD7762] + CS(=O)(=O)N1CCN(Cc2cc3nc(-c4cccc5[nH]ncc45)nc(N4CCOCC4)c3s2)CC1 [Pictilisib] (partner 1 µM)
relative viability ([1]; first compound 0.1 µM): 0.336
relative viability ([1]; first compound 0.3162 µM): 0.278
relative viability ([1]; first compound 1 µM): 0.224
relative viability ([2]; first compound 0.01 µM): 0.333
relative viability ([2]; first compound 0.03162 µM): 0.395
relative viability ([2]; first compound 0.1 µM): 0.4
relative viability ([2]; first compound 0.3162 µM): 0.363
relative viability ([2]; first compound 1 µM): 0.389
relative viability ([3]; first compound 0.01 µM): 0.823
relative viability ([3]; first compound 0.03162 µM): 0.925
relative viability ([3]; first compound 0.1 µM): 0.717
relative viability ([3]; first compound 0.3162 µM): 0.725
relative viability ([3]; first compound 1 µM): 0.704
relative viability ([4]; first compound 0.01 µM): 0.867
relative viability ([4]; first compound 0.03162 µM): 0.865
relative viability ([4]; first compound 0.1 µM): 0.909
relative viability ([4]; first compound 0.3162 µM): 0.677
relative viability ([4]; first compound 1 µM): 0.321
relative viability ([5]; first compound 0.01 µM): 0.228
relative viability ([5]; first compound 0.03162 µM): 0.227
relative viability ([5]; first compound 0.1 µM): 0.176
relative viability ([5]; first compound 0.3162 µM): 0.11
relative viability ([5]; first compound 1 µM): 0.091
relative viability ([6]; first compound 0.01 µM): 0.491
relative viability ([6]; first compound 0.03162 µM): 0.482
relative viability ([6]; first compound 0.1 µM): 0.552
relative viability ([6]; first compound 0.3162 µM): 0.518
relative viability ([6]; first compound 1 µM): 0.612
relative viability ([7]; first compound 0.01 µM): 0.381
relative viability ([7]; first compound 0.03162 µM): 0.539
relative viability ([7]; first compound 0.1 µM): 0.396
relative viability ([7]; first compound 0.3162 µM): 0.21
relative viability ([7]; first compound 1 µM): 0.136
relative viability ([8]; first compound 0.01 µM): 0.56
relative viability ([8]; first compound 0.03162 µM): 0.533
relative viability ([8]; first compound 0.1 µM): 0.446
relative viability ([8]; first compound 0.3162 µM): 0.358
relative viability ([8]; first compound 1 µM): 0.228
relative viability ([9]; first compound 0.01 µM): 0.457
relative viability ([9]; first compound 0.03162 µM): 0.559
relative viability ([9]; first compound 0.1 µM): 0.382
relative viability ([9]; first compound 0.3162 µM): 0.291
relative viability ([9]; first compound 1 µM): 0.22
relative viability ([10]; first compound 0.01 µM): 0.544
relative viability ([10]; first compound 0.03162 µM): 0.45
relative viability ([10]; first compound 0.1 µM): 0.471
relative viability ([10]; first compound 0.3162 µM): 0.53
relative viability ([10]; first compound 1 µM): 0.25
relative viability ([11]; first compound 0.01 µM): 0.694
relative viability ([11]; first compound 0.03162 µM): 0.644
relative viability ([11]; first compound 0.1 µM): 0.337
relative viability ([11]; first compound 0.3162 µM): 0.176
relative viability ([11]; first compound 1 µM): 0.2
relative viability ([12]; first compound 0.01 µM): 0.753
relative viability ([12]; first compound 0.03162 µM): 0.768
relative viability ([12]; first compound 0.1 µM): 0.848
relative viability ([12]; first compound 0.3162 µM): 0.679
relative viability ([12]; first compound 1 µM): 0.393
